According to PMC4601027, “Structural Analysis of the Pin1-CPEB1 interaction and its potential role in CPEB1 degradation” (Scientific Reports, 2015):
Non-standard residues stand in square brackets, D forms with d. Residues, ends and D or L forms follow the SMILES beside them. pS = N[C@@H](COP(=O)(O)O)C(=O)O

Columns and labels:
Pin1 full-length = biological target: T1, Pin1 full-length (Homo sapiens, UniProt Q13526); assay: ITC titration of CPEB1 phosphopeptides with Pin1 full-length; format: binding; conditions: for Kd: nano ITC calorimeter, 12 °C or 25 °C, 20 mM Tris-HCl pH 7.0, 130 mM NaCl, repeated at least twice, for pS210 one Pin1 molecule could interact with two peptides, read-out: Pin1 FL KD
T1 construct: The full-length Pin1 clone was obtained from Addgene; His6 (N); provided by Dustin Maly's Lab
T1 sequence (Q13526 whole entry): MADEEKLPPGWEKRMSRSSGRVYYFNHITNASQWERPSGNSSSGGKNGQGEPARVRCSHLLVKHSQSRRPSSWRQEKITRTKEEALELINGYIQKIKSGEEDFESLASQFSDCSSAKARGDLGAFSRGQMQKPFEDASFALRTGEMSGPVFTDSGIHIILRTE
Source text: (§1) Pin1 interacts with phosphorylated CPEB1 in Xenopus oocytes, as well as in mammalian cells. […] Therefore, to mimic the in vivo scenario, we measured the affinities of the interactions between recombinant proteins (the isolated WW domain and also the full-length protein) with several peptides containing the phosphorylation sites within CPEB1. These peptides were synthesized using Fmoc Solid-Phase Peptide Synthesis (SPPS) (Supplementary Fig 2). […] All affinities were found in the low μM range (Fig. 2a,b), with the exception of the pS423 site of CPEB1, located in the linker region between the RRM domains, whose affinity was considerably lower than the rest. Our results reveal that the peptides containing pS184 and pS210—the latter known to be essential for CPEB degradation—display the best affinities for Pin1 in vitro. The affinity of the phosphorylation-dependent interaction was about 10-fold higher than that of the unphosphorylated CPEB N-terminal counterparts. In addition, in most of the peptides examined, similar binding affinities and stoichiometries (1:1) were observed using either the full-length Pin1 protein or the truncated WW domain. Only when analyzing the interaction of CPEB1 pS210 and the full-length Pin1 protein we obtained a stoichiometry below 1 (n = 0.85), which cannot be attributed to systematic errors in the determination of the protein concentration. This discrepancy might indicate that in addition to the main complex consisting of a 1:1 protein/peptide ratio, a small population with a 1:2 stoichiometry is also present in solution.
ITC measurements were performed using a nano ITC calorimeter (TA Instruments) at 12 °C or 25 °C. Protein samples were prepared in 20 mM Tris-HCl pH 7.0 and 130 mM NaCl. All samples were degassed and centrifuged prior to the experiments. Protein concentration was measured in a NanoDrop™ 2000 measuring the UV absorption at 280 nm. Peptide concentration was determined by amino acid analysis. Depending on the expected affinity, sigmoidal curves were optimized by injecting 10- to 15-fold concentrated peptide in 16 × 3 μL steps in a cell containing 190 μL of protein at an adjusted concentration of between 150 and 200 μM , stirring at 200 revolutions per minute (rpm). The delay between injections was set to be of 3 minutes. The NanoAnalyze software (TA Instruments) was used to determine the binding isotherms, assuming a single binding site in each molecule (except for the Pin1 full-length interaction with the CPEB1 pS210 peptide, where one Pin1 molecule could interact with two peptides). Baseline controls were acquired with buffer and pure peptide solutions. Measurements were repeated at least twice.

[1] = biological target: T2, Pin1 WW domain (Uniprot: Q13526, Residues: 1–41) (Homo sapiens, UniProt Q13526); assay: ITC titration of CPEB1 phosphopeptides with Pin1 WW domain; conditions: nano ITC calorimeter, 12 °C or 25 °C, 20 mM Tris-HCl pH 7.0, 130 mM NaCl, single binding site model, repeated at least twice
T2 construct: The Pin1 WW domain (Uniprot: Q13526, Residues: 1–41); His6 (N); GST (N); made in house
T2 sequence (Q13526 1-41): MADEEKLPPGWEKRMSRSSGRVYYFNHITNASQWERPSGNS
Source text: as §1
ITC measurements were performed using a nano ITC calorimeter (TA Instruments) at 12 °C or 25 °C. Protein samples were prepared in 20 mM Tris-HCl pH 7.0 and 130 mM NaCl. All samples were degassed and centrifuged prior to the experiments. Protein concentration was measured in a NanoDrop™ 2000 measuring the UV absorption at 280 nm. Peptide concentration was determined by amino acid analysis. […]

| Kd (Pin1 full-length) | Kd [1] | stoichiometry (n), full-length Pin1 (Pin1 full-length; protein/peptide stoichiometry) | Structure (SMILES) |
| --- | --- | --- | --- |
| 84.3 ± 10.6 µM | 71.3 ± 9.3 µM | – | CSCC[C@H](NC(=O)[C@H](CO)NC(C)=O)C(=O)N[C@@H](CC(C)C)C(=O)N[C@@H](CC(N)=O)C(=O)N[C@@H](COP(=O)(O)O)C(=O)N1CCC[C@H]1C(=O)N[C@@H](CCSC)C(=O)NCC(=O)N[C@@H](CCCCN)C(N)=O [CPEB1 pS138] (Ac-SMLN[pS]PMGK-NH2; N-terminus assumed) |
| 83.5 ± 11.5 µM | 75.4 ± 12.7 µM | – | CC(=O)NCC(=O)N[C@@H](CCCCN)C(=O)N1CCC[C@H]1C(=O)N[C@@H](COP(=O)(O)O)C(=O)N1CCC[C@H]1C(=O)N[C@@H](CC(C)C)C(=O)NCC(=O)N[C@@H](Cc1ccccc1)C(=O)N[C@@H](CC(C)C)C(=O)N[C@H](C(N)=O)[C@@H](C)O [CPEB1 pS144] (Ac-GKP[pS]PLGFLT-NH2; N-terminus assumed) |
| – | – | 0.85 | CC[C@H](C)[C@H](NC(=O)[C@H](CCCNC(=N)N)NC(=O)[C@H](CC(C)C)NC(C)=O)C(=O)N[C@@H](COP(=O)(O)O)C(=O)N1CCC[C@H]1C(=O)N1CCC[C@H]1C(=O)N[C@@H](CC(C)C)C(=O)N[C@@H](Cc1c[nH]cn1)C(=O)N[C@@H](Cc1ccccc1)C(=O)N[C@@H](CC(C)C)C(=O)N1CCC[C@H]1C(=O)N[C@@H](CC(C)C)C(=O)NCC(=O)NCC(N)=O [CPEB1 pS210] (Ac-LRI[pS]PPLHFLPLGG-NH2; N-terminus assumed) |
| 42.4 ± 8.7 µM | 47.6 ± 7.6 µM | – | CC(=O)N[C@@H](C)C(=O)N[C@@H](C)C(=O)N[C@H](C(=O)N[C@H](C(=O)N[C@@H](COP(=O)(O)O)C(=O)N1CCC[C@H]1C(=O)N[C@@H](CC(C)C)C(=O)NCC(N)=O)C(C)C)[C@@H](C)O [CPEB1 pS248] (Ac-AATV[pS]PLG-NH2; N-terminus assumed) |
